Legend:
Assay type in all cases: functional, cell-based
[1] = system: Ehrlich; assay: Cytotoxicity against mouse EAC cells assessed as reduction in cell viability after 48 hrs by trypan blue exclusion assay
[2] = Cytotoxicity against mouse DLA cells assessed as reduction in cell viability after 48 hrs by MTT assay
[3] = system: MDA-MB-468; assay: Cytotoxicity against human MDA-MB-468 cells assessed as reduction in cell viability after 48 hrs by trypan blue exclusion assay; conditions: MDA-MB-468, 48 h
[4] = system: A549; assay: Cytotoxicity against human A549 cells assessed as reduction in cell viability after 48 hrs by trypan blue exclusion assay; conditions: A549, 48 h
[5] = system: MCF7; assay: Cytotoxicity against human MCF7 cells assessed as reduction in cell viability after 48 hrs by MTT assay; conditions: MCF7, 48 h
[6] = system: MDA-MB-468; assay: Cytotoxicity against human MDA-MB-468 cells assessed as reduction in cell viability after 48 hrs by MTT assay; conditions: MDA-MB-468, 48 h
[7] = system: A549; assay: Cytotoxicity against human A549 cells assessed as reduction in cell viability after 48 hrs by MTT assay; conditions: A549, 48 h
[8] = Cytotoxicity against mouse DLA cells assessed as reduction in cell viability after 48 hrs by trypan blue exclusion assay
[9] = system: Ehrlich; assay: Cytotoxicity against mouse EAC cells assessed as reduction in cell viability after 48 hrs by MTT assay
[10] = system: MCF7; assay: Cytotoxicity against human MCF7 cells assessed as reduction in cell viability after 48 hrs by trypan blue exclusion assay; conditions: MCF7, 48 h

Row | SMILES | IC50 [1] | IC50 [2] | IC50 [3] | IC50 [4] | IC50 [5] | IC50 [6] | IC50 [7] | IC50 [8] | IC50 [9] | IC50 [10]
1 | O=C(COc1ccc(Br)cc1)Nc1nc(-c2ccc(Cl)cc2)cs1 | 51.7 µM | 40.6 µM | 50.9 µM | 54.9 µM | 52.4 µM | 45.1 µM | 54.4 µM | 40.1 µM | 52.1 µM | 52.1 µM
2 | Cc1ccc(-c2csc(NC(=O)COc3ccc(Br)cc3)n2)cc1 | 48.5 µM | 52.1 µM | 40.1 µM | 37.1 µM | 39.1 µM | 40.9 µM | 37.2 µM | 51.7 µM | 48.2 µM | 39 µM
3 | Cc1ccc(OCC(=O)Nc2nc(-c3ccc(C)cc3)cs2)cc1 | 45.1 µM | 40.1 µM | 37.1 µM | 48.8 µM | 41.3 µM | 37.2 µM | 48.3 µM | 39.7 µM | 45.7 µM | 41.4 µM
4 | O=C(COc1ccc(Br)cc1)Nc1nc(-c2ccc(Br)cc2)cs1 | 41.1 µM | 52.4 µM | 41.1 µM | 46.6 µM | 44.9 µM | 41.7 µM | 46.5 µM | 52.1 µM | 41.7 µM | 44.5 µM
5 | O=C(COc1ccc(Cl)cc1)Nc1nc(-c2ccc(Cl)cc2)cs1 | 52.1 µM | 53.2 µM | 56.8 µM | 49.1 µM | 44.5 µM | 55.5 µM | 49.9 µM | 52.1 µM | 51.9 µM | 44.1 µM
6 | O=c1[nH]cc(F)c(=O)[nH]1 [FLUOROURACIL] | 9.6 µM | 10.8 µM | 44.6 µM | – | 10.2 µM | 44.9 µM | – | 10.6 µM | 9.2 µM | 10.6 µM
7 | CC(C)c1ccccc1OCC(=O)Nc1nc(-c2ccc(Br)cc2)cs1 | 50.1 µM | 45.7 µM | 50.1 µM | 48.5 µM | 42.5 µM | 50.9 µM | 48.2 µM | 45.1 µM | 50.9 µM | 43.5 µM
8 | O=C(COc1ccc(F)cc1F)Nc1nc(-c2ccc(Cl)cc2)cs1 | 26.5 µM | 26.1 µM | 32.3 µM | 26.3 µM | 25.8 µM | 32.9 µM | 26.5 µM | 26.4 µM | 26.2 µM | 25.3 µM
9 | Cc1cc(OCC(=O)Nc2nc(-c3ccc(Br)cc3)cs2)ccc1Cl | 47.1 µM | 40.1 µM | 51.7 µM | 51.7 µM | 52.1 µM | 52.1 µM | 52.1 µM | 39.7 µM | 47.8 µM | 51.7 µM
10 | Cc1ccc(-c2csc(NC(=O)COc3ccc(Cl)c(C)c3)n2)cc1 | 59.1 µM | 60.3 µM | 54.7 µM | 44.5 µM | 40.9 µM | 54.2 µM | 44.9 µM | 59.1 µM | 58.8 µM | 41.5 µM
11 | Cc1ccc(-c2csc(NC(=O)COc3ccccc3C(C)C)n2)cc1 | 42.8 µM | 52.9 µM | 56.8 µM | 44.7 µM | 49.2 µM | 55.5 µM | 44.2 µM | 52.2 µM | 42.9 µM | 49 µM
12 | Cc1ccc(-c2csc(NC(=O)COc3ccc(F)cc3)n2)cc1 | 18.1 µM | 18.9 µM | 24.4 µM | 19.1 µM | 18.3 µM | 24.9 µM | 19.3 µM | 18.1 µM | 18.4 µM | 18.1 µM
13 | Cc1ccc(OCC(=O)Nc2nc(-c3ccc(Cl)cc3)cs2)cc1 | 40.1 µM | 52.9 µM | 50.1 µM | 44.8 µM | 48.7 µM | 50.9 µM | 45.7 µM | 52.1 µM | 40.6 µM | 48.8 µM
14 | Cc1ccc(-c2csc(NC(=O)COc3ccccc3)n2)cc1 | 49.8 µM | 52.1 µM | 54.5 µM | 41.1 µM | 43 µM | 54.9 µM | 41.7 µM | 51.7 µM | 50.1 µM | 43 µM

— ChEMBL document CHEMBL4251560, “The Novel 4-Phenyl-2-Phenoxyacetamide Thiazoles modulates the tumor hypoxia leading to the crackdown of neoangiogenesis and evoking the cell death” (Eur J Med Chem, 2018)
